Results from publication PMC6799938, “Determinants of drug entry into the developing brain” (F1000Research, 2019).
Where two headings read alike, the source gives them in different places. Each block holds one molecule with its values, some of them ahead of it.

Legend:
[1] = Entry of "passive" markers into brain and CSF; conditions: passive marker, all ages (E19, P4, adults), 30 minutes
Protocol: (§1) Experimental procedure. In acute drug experiments, a single dose was injected that included traces of [ ^3H]-labelled drug (20µCi adults, 2µCi newborns). In chronic experiments, doses of unlabelled drug were given twice daily (09.00 and 17.00h) for four days before a final injection on the 5 ^th day identical to acute experiments. In passive marker experiments, all dosing was acute and contained only the [ ^3H]- or [ ^14C]-labelled compound (20µCi adults, 2µCi newborns).
(§2) In all experiments involving postnatal animals, injections were intraperitoneal (i.p.). In pregnant animals for fetal drug entry studies, the final injection of the radiolabelled marker was given intravenously (i.v.), as the peritoneal cavity required opening prior to the sampling period to gain access to the fetuses. For passive markers (L-glucose, sucrose and glycerol), fetal animals were individually injected i.p. while still within the uterine horn. All experiments took place between 09.00 and 15.00h. All pregnancy studies were completed with a single treatment group on one day. Postnatal groups were conducted with a single treatment group on one day or with the chronic group completed prior to the acute group.
(§3) Sample collection. Samples were collected 30 minutes after the final injection. This duration was chosen partly to limit any potential metabolism of the drugs and markers used but also to allow enough time for i.p. injected markers to reach the blood stream and, from there, to access the brain parenchyma across brain barriers, as well as to limit the CSF sink effect that could influence drug levels ( [Bito et al., 1966]). Thirty minutes is also within the half-life of these drugs ( [Adedoyin et al., 1987]; [Harrison & Gibaldi, 1976]; Lin & Levy, 1963). The other reason a 30-minute duration was chosen is that in the case of exposed fetal rat pups, it is difficult to maintain them in a reasonable physiological state for long periods due to deterioration of placental perfusion. Therefore, for comparative purposes, all studies were conducted at the same time.
For adult and newborn (P4) experiments, animals were terminally anaesthetized using inhaled isofluorane (IsoFlo 100% w/w, Abbott Laboratories). Blood samples were collected from the right cardiac ventricle, CSF from the cisterna magna (Habgood et al., 1992) and cortical segments of brain tissue dorsal to the ventricle of the frontal/parietal lobes, as previously described ( [Koehn et al., 2019]). Blood and CSF sampling from the P4 animals was terminal and would thus not have affected the physiological state of the animals during the experiment.
Sample preparation. Samples were processed immediately after collection. Blood was centrifuged at 7000rpm for five minutes and the plasma separated. CSF samples were examined microscopically for traces of red blood cells and discarded if contaminated (Habgood et al., 1992). In all experiments, the radioactivity in the injectate was also measured to confirm the uniformity of the injected material. All samples were weighed and transferred into scintillation vials. Soluene350 (0.5ml, PerkinElmer) was added to the brain samples. After being incubated at 36°C overnight to allow the tissue to solubilize, two drops of glacial acetic acid (Sigma) were added to neutralize the strongly alkaline Soluene350. All samples were then mixed with 5ml of scintillation fluid (Emulsifier-safe, PerkinElmer) before being transferred into the liquid scintillation counter (Tri-Carb 4910 TR, PerkinElmer) to count radioactivity disintegrations per minute (DPM) over five minutes each with luminescence correction on. Blank vials containing the same tissues without radioactivity were also counted alongside the samples to establish the level of background counts, which were always subtracted from the radioactivity counts of the corresponding experimental samples.
BrainorCSFtransfer=BrainorCSFDPM/μl/plasmaDPM/μl×100%

[2] = Placental transfer at E19 (fetal/maternal plasma concentration ratio); conditions: E19, passive permeability markers, acute; for Fetal/Maternal plasma concentration ratio: mean ± SD
[3] = for Brain radioactivity level / CSF radioactivity level / Plasma radioactivity level: mean; for Brain/Plasma Ratio / CSF/Plasma Ratio: mean ± SD
Protocol: Animals. Sprague Dawley rats were supplied by the University of Melbourne Biological Research Facility and housed in groups of 2–4 (adult) or full litters per cage (25cm x 35cm x 25cm on Breeders Choice paper bedding, made from 99% recycled paper; it is biodegradable with no added chemicals), on a 12 h light/dark cycle with ad libitum access to food (dry pellets of a fixed formulation diet for laboratory rats and mice fortified with vitamins and minerals to meet the requirements of breeding animals after the diet is autoclaved or irradiated, supplied by Speciality Feeds, Western Australia) and water. Age groups investigated (at treatment completion) were time mated pregnant females at E19 (350-400g body weight), postnatal pups at P4 and non-pregnant female adults (175-230g body weight). E19 was chosen because this is a stage of development when adequate volumes of blood and CSF can be obtained for analysis from fetal rats without pooling ( [Dziegielewska et al., 1981]) and individual pups can be injected intraperitoneally while still inside the uterine horn and kept viable for periods of time. P4 was chosen because its stage of brain development is similar to that of very prematurely born but viable human infants of 22–24 weeks gestation ( [Clancy et al., 2001]). Animal numbers were based on previous experience of such experiments and were the minimum number required to detect a significant difference between groups at P <0.05.
Drug doses. Drug doses were selected based on use in clinical practice ( [Australian Medicines Handbook, 2019]) and adjusted for body weight.
as §1, §2, §3
For adult and newborn (P4) experiments, animals were terminally anaesthetized using inhaled isofluorane (IsoFlo 100% w/w, Abbott Laboratories).

[4] = Sprague Dawley, rat, in vivo
[5] = system: abcc4 (MRP4)
[6] = system: abcg2 (BCRP)
[7] = system: abcc3 (MRP3)
[8] = system: abcc2 (MRP2)
[9] = system: abcc5 (MRP5)
[10] = system: abcc1 (MRP1)
[11] = system: abcb1a (PGP)
[12] = system: abcb1b (PGP)
[13] = E19 fetuses, acute, 30 min - […] after administration
[14] = E19 fetuses, acute, listed as cimetidine
[15] = E19 fetuses, chronic (twice daily over five days), 30 min - […] after final dose
[16] = P4, acute, 30 min, listed as cimetidine
[17] = P4, chronic i.p. (twice daily over five days), 30 min after final dose
[18] = adult, acute, 30 min, listed as cimetidine
[19] = adult, chronic i.p. (twice daily over five days), 30 min after final dose
[20] = choroid plexus (lateral ventricular), E19
[21] = choroid plexus (lateral ventricular), P4
[22] = choroid plexus (lateral ventricular), adult

SMILES: O=C[C@@H](O)[C@H](O)[C@@H](O)[C@@H](O)CO [L-Glucose, L-glucose]
- Brain/Plasma Ratio [1]: very low
- CSF/Plasma Ratio [1]: very low
- Fetal/Maternal plasma concentration ratio, range [2]: (8.3 - 27.7) %
- Fetal/Maternal plasma concentration ratio [2]: 16.7 ± 6.5%
- Fetal/Maternal plasma concentration ratio ([2]; listed as L-glucose): 16.7%

- transfer from maternal blood to fetal brain ([3]; E19, acute): 17%
- Brain radioactivity level [3, 13]: 7.3 DPM/µg
- CSF radioactivity level [3, 13]: 7.0 DPM/µl
- Plasma radioactivity level [3, 13]: 13.0 DPM/µl
- Brain/Plasma Ratio ([3]; E19 fetuses, acute): 56 ± 10%
- CSF/Plasma Ratio ([3]; E19 fetuses, acute): 54 ± 11%
- Brain/Plasma Ratio [3, 14]: 56%
- CSF/Plasma Ratio [3, 14]: 54%
- Brain radioactivity level [3, 15]: 8.8 DPM/µg
- CSF radioactivity level [3, 15]: 8.4 DPM/µl
- Plasma radioactivity level [3, 15]: 13.3 DPM/µl
- Brain/Plasma Ratio ([3]; E19 fetuses, chronic): 65 ± 19%
- CSF/Plasma Ratio ([3]; E19 fetuses, chronic): 63 ± 15%
- Brain radioactivity level ([3]; P4, acute i.p., 30 min): 37.2 DPM/µg
- CSF radioactivity level ([3]; P4, acute i.p., 30 min): 24.3 DPM/µl
- Plasma radioactivity level ([3]; P4, acute i.p., 30 min): 310.9 DPM/µl
- Brain/Plasma Ratio ([3]; P4, acute, 30 min): 12 ± 1%
- CSF/Plasma Ratio ([3]; P4, acute, 30 min): 8 ± 1%
- Brain/Plasma Ratio [3, 16]: 12%
- CSF/Plasma Ratio [3, 16]: 8%
- Brain radioactivity level [3, 17]: 45.7 DPM/µg
- CSF radioactivity level [3, 17]: 27.8 DPM/µl
- Plasma radioactivity level [3, 17]: 373.2 DPM/µl
- Brain/Plasma Ratio ([3]; P4, chronic, 30 min): 12 ± 2%
- CSF/Plasma Ratio ([3]; P4, chronic, 30 min): 7 ± 1%
- transfer into maternal brain (brain/maternal blood) ([3]; acute): 13%
- Brain radioactivity level ([3]; adult, acute i.p., 30 min): 6.2 DPM/µg
- CSF radioactivity level ([3]; adult, acute i.p., 30 min): 6.0 DPM/µl
- Plasma radioactivity level ([3]; adult, acute i.p., 30 min): 55.9 DPM/µl
- Brain/Plasma Ratio ([3]; adult, acute, 30 min): 13 ± 5%
- CSF/Plasma Ratio ([3]; adult, acute, 30 min): 12 ± 3%
- Brain/Plasma Ratio [3, 18]: 13%
- CSF/Plasma Ratio [3, 18]: 12%
- Brain radioactivity level [3, 19]: 11.6 DPM/µg
- CSF radioactivity level [3, 19]: 11.1 DPM/µl
- Plasma radioactivity level [3, 19]: 90.7 DPM/µl
- Brain/Plasma Ratio ([3]; adult, chronic, 30 min): 13 ± 1%
- CSF/Plasma Ratio ([3]; adult, chronic, 30 min): 12 ± 1%
- restriction of transfer by the placenta [4]: ~70%
SMILES: CN/C(=N/CCSCc1nc[nH]c1C)NC#N [Cimetidine]
- abcc4 expression, fold change chronic vs acute ([5]; brain cortex, E19): 0.98 fold
- abcc4 expression, fold change chronic vs acute ([5]; brain cortex, P4): 1.18 fold
- abcc4 expression, fold change chronic vs acute ([5]; brain cortex, adult): 1.00 fold
- abcc4 expression, fold change chronic vs acute [5, 20]: 1.17 fold
- abcc4 expression, fold change chronic vs acute [5, 21]: 1.12 fold
- abcc4 expression, fold change chronic vs acute [5, 22]: ↑ 1.49 fold
- abcc4 expression, fold change chronic vs acute ([5]; placenta, E19): 0.69 fold
- abcg2 expression, fold change chronic vs acute ([6]; brain cortex, E19): 0.80 fold
- abcg2 expression, fold change chronic vs acute ([6]; brain cortex, P4): 1.11 fold
- abcg2 expression, fold change chronic vs acute ([6]; brain cortex, adult): 0.98 fold
- abcg2 expression, fold change chronic vs acute [6, 20]: 1.01 fold
- abcg2 expression, fold change chronic vs acute [6, 21]: 0.73 fold
- abcg2 expression, fold change chronic vs acute [6, 22]: 0.91 fold
- abcg2 expression, fold change chronic vs acute ([6]; placenta, E19): 1.24 fold
- abcc3 expression, fold change chronic vs acute ([7]; brain cortex, E19): 0.81 fold
- abcc3 expression, fold change chronic vs acute ([7]; brain cortex, P4): 1.12 fold
- abcc3 expression, fold change chronic vs acute ([7]; brain cortex, adult): 1.18 fold
- abcc3 expression, fold change chronic vs acute [7, 20]: 1.46 fold
- abcc3 expression, fold change chronic vs acute [7, 21]: 1.05 fold
- abcc3 expression, fold change chronic vs acute [7, 22]: 1.12 fold
- abcc3 expression, fold change chronic vs acute ([7]; placenta, E19): 0.96 fold
- abcc2 expression, fold change chronic vs acute ([8]; brain cortex, E19): 0.96 fold
- abcc2 expression, fold change chronic vs acute ([8]; brain cortex, P4): ↓ 0.92 fold
- abcc2 expression, fold change chronic vs acute ([8]; brain cortex, adult): 1.00 fold
- abcc2 expression, fold change chronic vs acute [8, 20]: 1.19 fold
- abcc2 expression, fold change chronic vs acute [8, 21]: 1.04 fold
- abcc2 expression, fold change chronic vs acute [8, 22]: 0.86 fold
- abcc2 expression, fold change chronic vs acute ([8]; placenta, E19): *10.07 fold
- abcc5 expression, fold change chronic vs acute ([9]; brain cortex, E19): 0.97 fold
- abcc5 expression, fold change chronic vs acute ([9]; brain cortex, P4): ↑ 1.24 fold
- abcc5 expression, fold change chronic vs acute ([9]; brain cortex, P4, listed as cimetidine): 1.24 fold
- abcc5 expression, fold change chronic vs acute ([9]; brain cortex, adult): 1.11 fold
- abcc5 expression, fold change chronic vs acute [9, 20]: 1.19 fold
- abcc5 expression, fold change chronic vs acute [9, 21]: 0.86 fold
- abcc5 expression, fold change chronic vs acute [9, 22]: 1.21 fold
- abcc5 expression, fold change chronic vs acute ([9]; placenta, E19): 1.14 fold
- abcc1 expression, fold change chronic vs acute ([10]; brain cortex, E19): 1.00 fold
- abcc1 expression, fold change chronic vs acute ([10]; brain cortex, P4): 1.11 fold
- abcc1 expression, fold change chronic vs acute ([10]; brain cortex, adult): 1.20 fold
- abcc1 expression, fold change chronic vs acute [10, 20]: 1.28 fold
- abcc1 expression, fold change chronic vs acute [10, 21]: 0.96 fold
- abcc1 expression, fold change chronic vs acute [10, 22]: 1.06 fold
- abcb1a expression, fold change chronic vs acute ([11]; brain cortex, E19): 0.93 fold
- abcb1a expression, fold change chronic vs acute ([11]; brain cortex, P4): ↑ 1.23 fold
- abcb1a expression, fold change chronic vs acute ([11]; brain cortex, adult): 1.06 fold
- abcb1a expression, fold change chronic vs acute [11, 20]: 1.73 fold
- abcb1a expression, fold change chronic vs acute [11, 21]: 1.72 fold
- abcb1a expression, fold change chronic vs acute [11, 22]: 1.06 fold
- abcb1a expression, fold change chronic vs acute ([11]; placenta, E19): 0.86 fold
- abcb1b expression, fold change chronic vs acute ([12]; brain cortex, E19): 1.09 fold
- abcb1b expression, fold change chronic vs acute ([12]; brain cortex, P4): 1.03 fold
- abcb1b expression, fold change chronic vs acute ([12]; brain cortex, adult): 0.87 fold
- abcb1b expression, fold change chronic vs acute [12, 20]: 1.66 fold
- abcb1b expression, fold change chronic vs acute [12, 21]: 1.00 fold
- abcb1b expression, fold change chronic vs acute [12, 22]: 1.15 fold
- abcb1b expression, fold change chronic vs acute ([12]; placenta, E19): 1.00 fold
